Data published in patent US9150887B2, “Ethanologenic bacteria with increased resistance to furfural” (UNIVERSITY OF FLORIDA RESEARCH FOUNDATION, INC., priority 2009, dated 2015).
Converted amounts (≈) assume the structure as drawn. “Also recorded” adds a separate entry of the source. Like-named read-outs stand apart in the source and are kept apart here.

Experiments:
LY180 [1] = assay: 5-HMF tolerance in tube cultures with cysteine supplement; format: cell-based, Escherichia coli
Procedure: Tolerance to 5-HMF was tested using 13×100 mm closed tubes containing 4 ml AM1 and 5-HMF as indicated. When appropriate, antibiotics were included for plasmid maintenance. Tubes were inoculated to an initial density of 0.05 OD550 nm. […] To examine the effects of pntAB on furan tolerance, a multiwall plate containing 400 μl of AM1 (and 5-HMF or furfural) per well was inoculated as above. OD(420-580 nm bandwidth) was measured for 72 h using a Bioscreen C growth analyzer (Oy Growth Curves, Helsinki, Finland).

LY180 [2] = assay: Effect of 5-HMF on anaerobic growth and fermentation; format: cell-based, Escherichia coli; conditions: 1.0 g l^−1 5-HMF; 100 g l^−1 xylose
Procedure: (§1) For fermentation experiments, seed cultures of LY180 and EMFR9 were grown overnight in small fermentors (37° C., 200 rpm) containing 350 ml of AM1 medium. Broth was maintained at pH 6.5 by the automatic addition of 2 N KOH. Upon reaching mid-log phase, experimental fermenters were inoculated to an initial cell density of 0.1 OD550 nm. (33 mg dry cell weight l^−1). Cell mass (OD550 nm) and furan levels were monitored at 12-h intervals as described previously (Martinez et al. 2000b Biotechnol Prog 16: 637-641).

EMFR9 [3] = assay: as above; format: cell-based, Escherichia coli
Procedure: as §1

yqhD promoter [4] = assay: Luciferase reporter activity from the yqhD promoter in LY180; format: cell-based, Escherichia coli
Procedure: (§2) Cultures of E. coli carrying appropriate reporter plasmids were grown in AM1-5% xylose to OD 0.2-0.4. After addition of furfural, cells were pelleted, resuspended in Qiagen Qproteome bacterial lysis buffer, and stored at −80° C. The lysates were thawed at 37° C. for 2 minutes, and transferred to a white 96-well plate. An equal volume (50 uL) of PerkinElmer BriteLite reagent was added to each well, and the luminescence measured in a Promega Glomax 96-well luminometer.
(§3) Plasmid pLOI4900 was constructed by transferring the firefly luciferase gene into pBAD24 (Guzman et al. 1995 J. Bacteriol. 177: 4121-4130), and then replacing the araC gene and pBAD promoter regions with a 150-bp region upstream from the yqhD gene in LY180. This putative yqhD promoter region was PCR amplified using primers PCT6 and PCT7 (Table 2).
(§4) Cultures of E. coli carrying appropriate reporter plasmids were grown in AM1-50 g liter^−1 xylose to OD 0.4. After sampling the cultures, furfural was added, and incubation continued for 5, 15 or 30 min before sampling again. Untreated and furfural-treated cells were pelleted, resuspended in Qiagen Qproteome bacterial lysis buffer, and stored at −80° C. The lysates were thawed at 37° C. for 2 minutes, and transferred to a 96-well plate (white). An equal volume (50 μL) of PerkinElmer BriteLite reagent was added to each well. Luminescence was measured using a Promega Glomax 96-well luminometer.

yqhD promoter [5] = assay: Luciferase reporter activity from the yqhD promoter in EMFR17; format: cell-based, Escherichia coli; conditions: EMFR17 with pPyqhD-luc; furfural addition
Procedure: as §2

LY180 [6] = assay: Furfural toxicity (MIC) in tube cultures; format: cell-based, Escherichia coli; conditions: for MIC: other compounds of hemicellulose hydrolysates, data not shown
Procedure: (§5) Cultures were inoculated to an initial density of 17 mg dcw liter^−1. Cell mass was measured after incubation at 37° C. for 24 h and 48 h.

EMFR9 [7] = assay: Furfural toxicity (MIC) in tube cultures; format: cell-based, Escherichia coli; conditions: for MIC: other compounds of hemicellulose hydrolysates, data not shown
Procedure: as §5

LY180 [8] = assay: Furfural resistance and metabolism during pH-controlled fermentation; format: cell-based, Escherichia coli
Procedure: (§6) Furfural resistance was compared in small fermenters (37° C., 150 rpm, pH 6.5, 350-ml working volume) using AM1 medium (Martinez et al. 2007 Biotechnol. Lett. 29:397-404) containing 100 g liter^−1 xylose. Seed cultures were inoculated to approximately 33 mg dcw liter^−1. Samples were removed periodically to measure cell mass, ethanol, and furfural.

EMFR9 [9] = assay: as above; format: cell-based, Escherichia coli
Procedure: as §6

yqhD promoter [10] = assay: Luciferase reporter activity from the yqhD promoter in LY180ΔyqhC; format: cell-based, Escherichia coli; conditions: yqhC deletion strain with pLOI4900; furfural addition
Procedure: as §2, §3
Cultures of E. coli carrying appropriate reporter plasmids were grown in AM1-50 g liter^−1 xylose to OD 0.4. After sampling the cultures, furfural was added, and incubation continued for 5, 15 or 30 min before sampling again. Untreated and furfural-treated cells were pelleted, resuspended in Qiagen Qproteome bacterial lysis buffer, and stored at −80° C. The lysates were thawed at 37° C. for 2 minutes, and transferred to a 96-well plate (white). […] Luminescence was measured using a Promega Glomax 96-well luminometer.

yqhD promoter [11] = assay: Luciferase reporter activity from the yqhD promoter in EMFR9; format: cell-based, Escherichia coli; conditions: EMFR9 with yqhD promoter reporter plasmid; furfural addition
Procedure: as §2, §4

LY180 [12] = assay: Furfural reduction in vivo during fermentation; format: cell-based, Escherichia coli; conditions: furfural 0.5 g liter^−1
Procedure: (§7) Cultures grown to a cell density of […] in fleakers containing 350 mL AM1-10% xylose medium were sampled immediately before and 15, 30, and 60 minutes after addition of furfural to 0.5 g/L. The residual furfural concentration in the culture was determined after removal of bacterial cells by centrifugation. A spectrophotometric method was used, as described previously.
(§8) Cultures were grown to a cell density of 0.66 g dcw liter^−1 in fleakers containing 350 mL AM1-100 g liter^−1 xylose medium and sampled immediately before and 15, 30, and 60 minutes after addition of furfural (to 0.5 g liter^−1) as previously described (Miller et al. 2009 Appl. Environ. Microbiol. 75:4315-4323). Residual furfural was measured in the culture broth after centrifugation using a spectrophotometric method (Martinez et al. 2000 Biotechnol. Prog. 16: 637-641).

LY180ΔyqhC = assay: Furfural reduction in vivo during fermentation; format: cell-based, Escherichia coli; conditions: furfural 0.5 g liter^−1
Procedure: as §7, §8

[13] = system: yqhC, yqhD and dkgA transcripts in LY180; assay: Microarray analysis of transcripts after furfural addition; format: cell-based, Escherichia coli; conditions: 15 min after 0.5 g liter^−1 furfural
Procedure: For each strain, 4 replicate 350 ml cultures were grown to OD=[…] (0.66 g dcw liter^−1) and sampled. Furfural (0.5 g liter^−1) was added and samples were removed after 15 minutes of incubation. Culture samples were cooled in a dry ice/ethanol bath. Cells were pelleted at 4° C., resuspended in RNA Later (Qiagen), and stored at −80° C. Cell pellets from the 4 fermentors were pooled and used for RNA isolation (Qiagen RNeasy Mini Kit). RNA was treated with DNase, re-purified, and assessed for quality using an Agilent Bioanalyzer. RNA samples were submitted to Nimblegen for conversion to cDNA, labeling with Cy3, and hybridization to the E. coli K12 TI8333 microarray chip. This chip contains 385,000 60-mer probes derived from E. coli K12 strain MG1655, and has 5 replicates of each probe with an average of 18 probes per gene. Normalized expression data from Nimblegen was imported into ArrayStar (DNA Star) for analysis.

DkgA [14] = molecular target: T1, DkgA (Escherichia coli, UniProt Q46857); conditions: Miller et al. 2009b; read-out: apparent Km for NADPH; cited from earlier work
T1 construct: For-[…]; His-tag (N); made in house; host or cells: E. coli BL21 (DE3)
T1 sequence (Q46857 whole entry): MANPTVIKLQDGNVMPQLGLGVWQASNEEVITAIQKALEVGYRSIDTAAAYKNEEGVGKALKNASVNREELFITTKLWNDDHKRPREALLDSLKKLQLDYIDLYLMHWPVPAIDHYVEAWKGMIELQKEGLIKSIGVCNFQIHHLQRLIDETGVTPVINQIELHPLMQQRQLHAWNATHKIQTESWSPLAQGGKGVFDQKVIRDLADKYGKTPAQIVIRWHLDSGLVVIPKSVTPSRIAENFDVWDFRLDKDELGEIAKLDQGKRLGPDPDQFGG

YqhD [15] = molecular target: T2, YqhD (Escherichia coli, UniProt Q46856); assay: Kinetic analysis of purified His-tagged YqhD; conditions: read-out: apparent Km for NADPH; purified enzyme, with furfural
T2 sequence (Q46856 1-387): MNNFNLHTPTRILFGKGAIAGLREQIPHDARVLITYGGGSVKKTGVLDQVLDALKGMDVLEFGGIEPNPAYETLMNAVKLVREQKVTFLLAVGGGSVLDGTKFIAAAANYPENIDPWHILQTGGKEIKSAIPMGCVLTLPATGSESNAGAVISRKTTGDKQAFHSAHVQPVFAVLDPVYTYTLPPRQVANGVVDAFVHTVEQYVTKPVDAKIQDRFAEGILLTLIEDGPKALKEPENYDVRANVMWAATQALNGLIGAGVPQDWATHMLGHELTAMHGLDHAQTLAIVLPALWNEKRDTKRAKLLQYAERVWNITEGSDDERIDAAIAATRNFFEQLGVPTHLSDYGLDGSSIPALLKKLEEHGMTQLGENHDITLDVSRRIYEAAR
Procedure: (§9) Cells were grown with IPTG to approximately 1.3 g dcw liter^−1, washed with 100 mM phosphate buffer, and lysed using MP Fast Prep-24 (MP Biomedical, Solon Ohio) and Lysing Matrix B. Crude extracts were passed through a 0.22 μm PVDF filter and further purified using a 1 mL HiTrap nickel column. Purified enzymes were dialyzed in 100 mM phosphate buffer using a Thermo Slide-A-Lyser and quantified using a Thermo BCA Protein Assay Kit. […] Apparent Kcat and apparent Km values were determined for both purified enzymes using NADPH and furfural.

YqhD [16] = molecular target: T2, YqhD; design: For-[…]; His-tag (N); made in house; host or cells: E. coli BL21 (DE3); conditions: Miller et al. 2009b; read-out: apparent Km for NADPH; cited from earlier work
DkgA [17] = molecular target: T1, DkgA; assay: Kinetic analysis of purified His-tagged DkgA; format: biochemical; conditions: purified enzyme, with furfural; read-out: apparent Km for NADPH
Procedure: Both the yqhD and dkgA genes were cloned into a Novagen pET-15b vector and expressed as a His-tagged protein in E. coli BL21 (DE3). Cells were grown with IPTG to approximately 1.3 g dcw liter^−1, washed with 100 mM phosphate buffer, and lysed using MP Fast Prep-24 (MP Biomedical, Solon Ohio) and Lysing Matrix B. Crude extracts were passed through a 0.22 μm PVDF filter and further purified using a 1 mL HiTrap nickel column. Purified enzymes were dialyzed in 100 mM phosphate buffer using a Thermo Slide-A-Lyser and quantified using a Thermo BCA Protein Assay Kit. Purity of YqhD and DkgA were estimated to be greater than 90% by SDS-PAGE. […] Estimated sizes of the purified proteins were in agreement with predicted values of 43 kD and 31 kD, respectively. Apparent Kcat and apparent Km values were determined for both purified enzymes using NADPH and furfural.

[18] = substrate: O=Cc1ccco1; assay: cells, lysate or membranes named; conditions: other: purified enzyme, NADPH-dependent reduction
Procedure: as §9

[19] = mineral salts media with 50 g liter^−1 xylose, 48 h
[20] = xylose-mineral salts medium with yeast extract (1.0 g liter^−1)

Molecule: O=Cc1ccc(CO)o1 [5-HMF, 5-hydroxymethyl furfural]
- effect on growth (LY180 [1]; 1 g l^−1 5-HMF, tube cultures, 24 h): partially inhibited
- effect on growth (LY180 [2]): completely inhibited
- effect on cell yield or ethanol yield (EMFR9 [3]; 1.0 g l^−1 5-HMF): no detrimental effect
- effect on ethanol production and growth (EMFR9 [3]; 2.5 g 5-HMF l^−1): slowed
- time to completion of ethanol production and growth (EMFR9 [3]; 2.5 g 5-HMF l^−1): 96 h

Molecule: CC(=O)C=O [Methylglyoxal]
- effect on luciferase activity (yqhD promoter [4]; LY180(pLOI4900), 0.1 mM): increase luciferase activity

Molecule: N[C@@H](CS)C(=O)O [cysteine, L-cysteine]
- restoration of growth by supplement (LY180 [1]; 100 μM cysteine with 1 g l^−1 5-HMF): completely restored
- restoration of growth by supplement (LY180 [1]; 100 μM or 1000 μM cysteine with 2.5 g l^−1 5-HMF): not restored
- effect of supplement on the MIC for 5-HMF (LY180 [1]; cysteine supplements): did not increase the MIC

Molecule: O=Cc1ccco1 [furfural]
- effect on luciferase expression (yqhD promoter [5]): luciferase expression was not increased
- minimal inhibitory concentration (MIC) of furfural (LY180 [6]; [19]): approximately 1.0 g liter^−1
- furfural MIC (LY180 [6]; xylose replaced with glucose): 1500 µg/mL
- furfural MIC (LY180 [6]; [20]): 2000 µg/mL
- minimal inhibitory concentration (MIC) of furfural (EMFR9 [7]; [19]): ~2000 µg/mL
- furfural MIC (EMFR9 [7]; xylose replaced with glucose): 2500 µg/mL
- furfural MIC (EMFR9 [7]; [20]): 2500 µg/mL
- effect on luciferase activity (yqhD promoter [4]; LY180(pLOI4900), furfural 1 mM, 5 mM and 10 mM, evident within 5 min): dose-dependent increase in luciferase activity
- effect on luciferase activity (yqhD promoter [4]; LY180 carrying pPyqhD-luc, 15 minutes after addition of furfural): activity was increased
- effect on growth and ethanol production (LY180 [8]; 0.4 g liter^−1 furfural, 100 g liter^−1 xylose): initial lag in growth and ethanol production
- effect on growth and ethanol production (LY180 [8]; 1.0 liter^−1 furfural, 72-h incubation): strongly inhibited
- time to complete reduction of furfural (EMFR9 [9]; 0.4 g liter^−1 furfural): 12 h
- time to complete reduction of furfural (EMFR9 [9]; 1.0 g liter^−1 furfural): 18 h
- effect on growth and fermentation (EMFR9 [9]; furfural 0.4 g liter^−1 or 1.0 g liter^−1): virtually unaffected
- effect on luciferase activity (yqhD promoter [10]): no furfural-dependent response was observed
- effect on luciferase expression (yqhD promoter [11]): luciferase expression was not increased; also recorded: did not increase luciferase activity
- in vivo rate of furfural reduction (LY180 [12]): 0.042±0.001 μmol min^−1 mg dcw^−1
- in vivo rate of furfural reduction (LY180ΔyqhC): 0.025±0.005 μmol min^−1 mg dcw^−1
- up-regulation of yqhC, yqhD and dkgA transcripts [13]: > 6 fold

Molecule: OCc1ccco1 [furfuryl alcohol]
- MIC (LY180 [6]): 15000 µg/mL (≈ 153 mM)
- MIC (EMFR9 [7]): 15000 µg/mL (≈ 153 mM)

Molecule: COc1cc(C=O)cc(OC)c1O [syringaldehyde]
- MIC (LY180 [6]): 2000 µg/mL (≈ 11 mM)
- MIC (EMFR9 [7]): 2000 µg/mL (≈ 11 mM)

Molecule: NADPH
- Km (DkgA [14]): 23 µM
- Km (YqhD [15]): 8 µM
- Km (YqhD [16]): 8 µM
- Km (DkgA [17]): 23 µM

B1: YqhD (Escherichia coli K-12) (protein)
chain: MNNFNLHTPTRILFGKGAIAGLREQIPHDARVLITYGGGSVKKTGVLDQVLDALKGMDVLEFGGIEPNPAYETLMNAVKLVREQKVTFLLAVGGGSVLDGTKFIAAAANYPENIDPWHILQTGGKEIKSAIPMGCVLTLPATGSESNAGAVISRKTTGDKQAFHSAHVQPVFAVLDPVYTYTLPPRQVANGVVDAFVHTVEQYVTKPVDAKIQDRFAEGILLTLIEDGPKALKEPENYDVRANVMWAATQALNGLIGAGVPQDWATHMLGHELTAMHGLDHAQTLAIVLPALWNEKRDTKRAKLLQYAERVWNITEGSDDERIDAAIAATRNFFEQLGVPTHLSDYGLDGSSIPALLKKLEEHGMTQLGENHDITLDVSRRIYEAAR
- Km [18]: 9000 µM
